Assay results reported in patent US8383581B2, “Short-chain peptides as parathyroid hormone (PTH) receptor agonist” (Cadila Healthcare Limited, priority 2009, dated 2013).
Values belong to the compound of their own block, whether it stands above or below them. Where a SMILES comes first, the peptide text is derived from it. [ ]: non-standard residue; d: D form. ξ: configuration not given here. ξαMePhe(2,6-F2) = CC(N)(Cc1c(F)cccc1F)C(=O)O; ξαMe(hhPhe) = CC(N)(CCCc1ccccc1)C(=O)O; ξαMePhe(2-F) = CC(N)(Cc1ccccc1F)C(=O)O; ξαMeW = CC(N)(Cc1c[nH]c2ccccc12)C(=O)O; hArg = N=C(N)NCCCC[C@H](N)C(=O)O; ξαMeF = CC(N)(Cc1ccccc1)C(=O)O; ξαMeNle = CCCCC(C)(N)C(=O)O; Nle = CCCC[C@H](N)C(=O)O; ξαMeP = CC1(C(=O)O)CCCN1; Ac5c = NC1(C(=O)O)CCCC1; Ac3c = NC1(C(=O)O)CC1; Aib = CC(C)(N)C(=O)O

Legend:
[1] = system: ovariectomised (OVX) rats; assay: In vivo anti-osteoporosis activity testing in OVX rat model (serum calcium, phosphate, bone parameters); set-up: species or system Female Wistar Rats; settings: po
Source text: c) In Vivo Anti-Osteoporosis Activity Testing in OVX Rat Model: The ovariectomised (OVX) rats were used to study anti-osteoporosis activity of test compounds (short-chain peptides) in vivo. The OVX rats develop osteopenia due to ovarian hormone deficiency. Osteopenia can be detected as early as 14 days post OVX, increase for the next 100 days and then stabilised (Wronski T. J., et al., Calcif. Tissue Int., 43(3), 1988, 179-183). Detailed Study Protocol to Evaluate the Effects of Anabolic Therapy on Bone Markers and Histomorphometry in OVX Animals: 10 to 11 weeks old Female Wistar Rats (150-200 g) were used. The animals were kept in individually ventilated cages in a room with controlled temperature (23°±3° C.), lighting (12:12 h light-dark cycle) and relative humidity (55±10%). Animals had free access to standard rat chow and water. Protocol for use of animals for conducting this study has been reviewed and approved by Institutional Animal Ethics Committee (IAEC). The animals were marked with picric acid for identification and acclimatized to experimental room conditions for 2 days prior to initiation of the study. For the induction of osteoporosis, rats were bilaterally ovariectomised under anesthesia. For Ovariectomy, Incision was made on dorsa-lateral side near lumbar region of animal. After that, ovary was excised and the veins were tied with ligature before removing ovary to prevent blood loss. Then incision was sutured back with ligature. After Bilateral ovariectomy, animals were allowed to rest for 4 weeks. They were then divided into different groups (n=9) based on their body weight. The groups consisted of a no treatment control, PTH as standard and one or two groups of test compounds (short-chain peptides). The treatment was given for the duration of 6 weeks. At the last day of treatment animals were kept overnight in metabolic cages under fasting for the collection of Urine. Next day, blood was collected after 24 hours of last dosing and animals were sacrificed. Changes in biochemical parameters and bone turnover parameters (Increase in serum Calcium and decrease in Phosphate levels, Acid Phosphatase and TRAP) were evaluated in the urine and serum. After sacrificing, intact femur and tibial bones are removed and cleaned from adherent tissues, muscles and tendons; weighed and collected in formal saline (10% formaldehyde solution). Lumbar vertebra (L5) was excised, carefully cleaned and collected in formal saline. Femur, tibia and Lumbar vertebra-5 (L5) were later processed for histomorphometric evaluation (Zhang L., et al., Tohoku J Exp Med., 1998, 186(2), 131-41; Tanizawa T., et al., Toxicol Lett., 1998, 102, 399-403).

[2] = Stability of peptides in human liver microsomes; format: in vitro ADME; settings: human, microsomes
Method in brief: (§1)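 Peptides at 2 μM final incubated 0–24 h at 37 °C (50 mM triethanolamine-HCl, pH 7.8) in each matrix, matrix level set to degrade ~50% PTH(1-34) in 1 h; TFA-quenched, C18 HPLC at 206 nm with ESI-MS peak identification; percent degradation from peak areas at each time point.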

[3] = Stability of peptides in human plasma; format: in vitro ADME; settings: human, plasma
Method in brief: as §1

[4] = Stability of peptides in simulated gastric fluid (pH 1.5; HCl, NaCl and Pepsin); format: in vitro ADME; settings: pH 1.5
[5] = Stability of peptides in simulated intestinal fluid (pH 7.5); format: in vitro ADME; settings: pH 7.5
Method in brief: as §1

Structure (SMILES): CC[C@H](C)[C@H](NC(=O)[C@H](CCC(=O)O)NC(=O)C(C)(C)NC(=O)[C@@H](NC(=O)C(C)(C)N)C(C)C)C(=O)N[C@@H](CCC(N)=O)C(=O)N[C@@H](CC(C)C)C(=O)N[C@@H](CCSC)C(=O)N[C@@H](Cc1c[nH]cn1)C(=O)N[C@@H](CCC(N)=O)C(=O)N[C@@H](CCCCNC(=N)N)C(=O)N1CCCC1(C)C(=O)N[C@@H](CCCCN)C(=O)NC(C)(Cc1ccccc1)C(N)=O (stereo partly drawn) [Seq. ID. 7] (H-[Aib]V[Aib]EIQLMHQ[hArg][ξαMeP]K[ξαMeF]-NH2)
- % decrease in serum PO4 Levels (mg/dl) vs control ([1]; 1 mg/kg): 88%
- % increase in serum Ca^2+ Levels (mg/dl) vs control ([1]; 1 mg/kg): 90%

Structure (SMILES): CC[C@H](C)[C@H](NC(=O)[C@H](CCC(=O)O)NC(=O)C(C)(C)NC(=O)[C@@H](NC(=O)C1(N)CC1)C(C)C)C(=O)N[C@@H](CCC(N)=O)C(=O)N[C@@H](CC(C)C)C(=O)N[C@@H](CCSC)C(=O)N[C@@H](Cc1c[nH]cn1)C(=O)N[C@@H](CCC(N)=O)C(=O)N[C@@H](CCCCNC(=N)N)C(=O)N1CCCC1(C)C(=O)N[C@@H](CCCCN)C(=O)NC(C)(Cc1ccccc1)C(N)=O (stereo partly drawn) [Seq. ID. 12] (H-[Ac3c]V[Aib]EIQLMHQ[hArg][ξαMeP]K[ξαMeF]-NH2)
- % decrease in serum PO4 Levels (mg/dl) vs control ([1]; 5 mg/kg): 102%
- % increase in serum Ca^2+ Levels (mg/dl) vs control ([1]; 5 mg/kg): 118%

Structure (SMILES): CCCC[C@H](NC(=O)C(C)(Cc1c(F)cccc1F)NC(=O)[C@H](CCC(N)=O)NC(=O)[C@@H](NC(=O)[C@H](CCC(=O)O)NC(=O)C(C)(C)NC(=O)[C@@H](NC(=O)C1(N)CC1)C(C)C)[C@@H](C)CC)C(=O)N[C@@H](Cc1c[nH]cn1)C(=O)N[C@@H](CCC(N)=O)C(=O)N[C@@H](CCCCNC(=N)N)C(=O)N[C@@H](C)C(=O)N[C@@H](CCCCN)C(=O)NC(C)(Cc1ccccc1)C(N)=O (stereo partly drawn) [Seq. ID. 39] (H-[Ac3c]V[Aib]EIQ[ξαMePhe(2,6-F2)][Nle]HQ[hArg]AK[ξαMeF]-NH2)
- % decrease in serum PO4 Levels (mg/dl) vs control ([1]; 0.03 mg/kg): 66%
- % increase in serum Ca^2+ Levels (mg/dl) vs control ([1]; 0.03 mg/kg): 88%

Structure (SMILES): CCCC[C@H](NC(=O)C(C)(Cc1c(F)cccc1F)NC(=O)[C@H](CCC(N)=O)NC(=O)[C@@H](NC(=O)[C@H](CCC(=O)O)NC(=O)C(C)(C)NC(=O)[C@@H](NC(=O)C(C)(C)N)C(C)C)[C@@H](C)CC)C(=O)N[C@@H](Cc1c[nH]cn1)C(=O)N[C@@H](CCC(N)=O)C(=O)N[C@@H](CCCCNC(=N)N)C(=O)N1CCCC1(C)C(=O)N[C@@H](CCCCN)C(=O)NC(C)(Cc1ccccc1F)C(N)=O (stereo partly drawn) [Seq. ID. 72] (H-[Aib]V[Aib]EIQ[ξαMePhe(2,6-F2)][Nle]HQ[hArg][ξαMeP]K[ξαMePhe(2-F)]-NH2)
- % decrease in serum PO4 Levels (mg/dl) vs control ([1]; 0.01 mg/kg): 77%
- % increase in serum Ca^2+ Levels (mg/dl) vs control ([1]; 0.01 mg/kg): 49%

Structure (SMILES): CCCC[C@H](NC(=O)C(C)(Cc1ccccc1F)NC(=O)[C@H](CCC(N)=O)NC(=O)[C@@H](NC(=O)[C@H](CCC(=O)O)NC(=O)C1(NC(=O)[C@@H](NC(=O)C2(N)CCCC2)C(C)C)CCCC1)[C@@H](C)CC)C(=O)N[C@@H](Cc1c[nH]cn1)C(=O)N[C@@H](CCC(N)=O)C(=O)N[C@@H](CCCCNC(=N)N)C(=O)N[C@@H](C)C(=O)N[C@@H](CCCCN)C(=O)NC(C)(Cc1c(F)cccc1F)C(N)=O (stereo partly drawn) [Seq. ID. 99] (H-[Ac5c]V[Ac5c]EIQ[ξαMePhe(2-F)][Nle]HQ[hArg]AK[ξαMePhe(2,6-F2)]-NH2)
- % decrease in serum PO4 Levels (mg/dl) vs control ([1]; 2 mg/kg): 89%
- % increase in serum Ca^2+ Levels (mg/dl) vs control ([1]; 2 mg/kg): 99%

- half-life [2]: 30 min
- % degradation of peptides in 24 h when incubated with liver microsomes ([2]; 24 h, 2 μM, pH 7.8): 100%
- half-life (t1/2) in human plasma [3]: (9) h
- metabolised at 24 h, 2 μM ([3]; pH 7.8): 70%
- % degradation of peptides in 24 h when incubated with simulated gastric fluid ([4]; simulated gastric fluid, 24 h, 2 μM): 100%
- half-life ([4]; simulated gi fluid): 30 min
- half-life ([5]; simulated gi fluid): 30 min
- % degradation of peptides in 24 h when incubated with simulated intestinal fluid ([5]; simulated intestinal fluid, 24 h, 2 μM): 100%
Structure (SMILES): CCCCC(C)(NC(=O)[C@H](CC(C)C)NC(=O)[C@H](CCC(N)=O)NC(=O)[C@@H](NC(=O)[C@H](CCC(=O)O)NC(=O)C(C)(C)NC(=O)[C@@H](NC(=O)C(C)(C)N)C(C)C)[C@@H](C)CC)C(=O)N[C@@H](Cc1c[nH]cn1)C(=O)N[C@@H](CCC(N)=O)C(=O)N[C@@H](CCCCNC(=N)N)C(=O)N[C@@H](C)C(=O)N[C@@H](CCCCNC(=N)N)C(=O)NC(C)(Cc1c[nH]c2ccccc12)C(=O)NC(C)(CCCc1ccccc1)C(N)=O (stereo partly drawn) [Seq. ID. 949] (H-[Aib]V[Aib]EIQL[ξαMeNle]HQ[hArg]A[hArg][ξαMeW][ξαMe(hhPhe)]-NH2)
